Source: patent US9205073B2, “Method for treating virus infection using derivative of aniline” (CHINA MEDICAL UNIVERSITY, priority 2014, dated 2015)

Tests used:
EV71 = assay: Enterovirus replication, plaque test in RD cells; format: cell-based, enterovirus type 71; settings: Enterovirus A, 36 h, read-out: inhibitory rate of EV 71 replication
Method: The RD cells were cultured in a 24-well culture plate with an initial density of 3×10^4 per well, as well as with 1 ml of 2% FBS-containing MEM medium per well. The cells were incubated in an incubator (37° C., 5% CO2) overnight. The medium was removed, and then, 1 ml of fresh 2% FBS-containing MEM medium was simultaneously added into each well. The RD cells were infected with an EV71 virus strain (M.O.I.=0.1). Different concentrations of compound 1 (final concentrations were 0, 2.5, 25 and 125 μM) were added into different wells respectively. RD cells were incubated in an incubator (37° C., 5% CO2) for 36 hours, and then the viral medium was collected for the following plaque test.
The RD cells were cultured in a 6-well culture plate, and incubated in an incubator (37° C., 5% CO2) overnight. The medium was removed, and then 200 μl of the above 10^4 times diluted viral medium was added into each well. The cells were infected for 1 hour. Then, 3 ml of a 3% agarose covering solution was added into each well. The cells were incubated in an incubator (37° C., 5% CO2) for 3 days. The covering solution was removed. Methyl blue was added into each well, and the plate was placed at room temperature overnight, and then washed with clear water, and dried. The number of plaques was counted to calculate the virus titer and inhibitory rate.

[1] = test system: JAK-STAT, AkT-mTOR and ERK-CREB signaling pathway-related proteins; assay: Western blot of signaling pathway phosphorylation in JEV T1P1-infected TE671 cells; format: cell-based; settings: 36 hours, 2.5-250 μM
Method: TE671cells were cultured in a 6-well culture plate at an initial density of 3×10^5 per well with 2 ml of 2% FBS-containing MEM medium per well. The cells were incubated in an incubator (37° C., 5% CO2) overnight. The medium was removed until the cells adhered to the plate. 1 ml of fresh 2% FBS-containing MEM medium was simultaneously added into each well. The cells were infected with JEV T1P1virus strain (M.O.I.=0.05). Different concentrations of compound 1 (the final concentrations were 0, 2.5, 25, 125 and 250 μM, respectively) were added into different wells. The cells were incubated in an incubator (37° C., 5% CO2) for 36 hours. The supernatant was removed, and the TE671 cells were washed with PBS. The PBS was removed, and 150 μl Trypsin-EDTA was added into each well. The cells were incubated in an incubator at 37° C. for 3 minutes. Then, 1 ml MEM medium was added into each well to neutralize EDTA, and the cells were separately collected into 15 ml tubes and precipitated by centrifugation (2000 rpm, 3 minutes). The supernatants were removed. The cells were resuspended with 1 ml PBS per tube, transferred into 1.5 ml microtubes respectively, and precipitated by centrifugation (2000 rpm, 3 minutes). The supernatants were removed and 100 μl radioimmunoprecipitation buffer (RIPA buffer) was added into each well. […]
The above protein samples were analyzed by protein electrophoresis. […]

## CCOC(=O)C1=C(Nc2cc(C)cc(C)c2)OCC1=O [Compound 1, ethyl 2-(3′,5′-dimethylanilino)-4-oxo-4,5-dihydrofuran-3-carboxylate]
EV71
  inhibition at 2.5 µM: 4.6%
  inhibition at 25 µM: 23%
  inhibition at 125 µM: 24.6%
[1]
  phosphorylation levels of JAK-STAT, AkT-mTOR and ERK-CREB signaling pathway-related proteins: increased in a concentration dependent manner
